Laboratory results taken from article PMC10788917 (Journal of Medicinal Chemistry, 2023).

target: HDAC4 (Homo sapiens, UniProt P56524); test: HDAC4 biochemical assay; conditions: preincubation 1 h, 1 nM HDAC4
Method: The enzyme activity assay was performed in assay buffer [25 mM Tris-HCl (pH 8.0), 50 mM NaCl, and 0.001% (v/v) Pluronic F-68] in black half-area 96-well microplates (Greiner Bio-One). […] The reaction was initiated by the addition of 20 μM Boc-Lys(TFA)-AMC (Bachem). […] The deacetylated substrate was cleaved with 0.42 mg/mL trypsin to release fluorescent 7-amino-4-methylcoumarin (AMC), which was detected with a microplate reader (PHERAstar FS […]) with fluorescence excitation at 360 nm and emission at 460 nm. IC50 values were calculated by generating dose–response curves in GraphPad Prism 6 and fitting those to a four-parameter logistic model.

HDAC4, sequence (P56524 whole entry, species assumed): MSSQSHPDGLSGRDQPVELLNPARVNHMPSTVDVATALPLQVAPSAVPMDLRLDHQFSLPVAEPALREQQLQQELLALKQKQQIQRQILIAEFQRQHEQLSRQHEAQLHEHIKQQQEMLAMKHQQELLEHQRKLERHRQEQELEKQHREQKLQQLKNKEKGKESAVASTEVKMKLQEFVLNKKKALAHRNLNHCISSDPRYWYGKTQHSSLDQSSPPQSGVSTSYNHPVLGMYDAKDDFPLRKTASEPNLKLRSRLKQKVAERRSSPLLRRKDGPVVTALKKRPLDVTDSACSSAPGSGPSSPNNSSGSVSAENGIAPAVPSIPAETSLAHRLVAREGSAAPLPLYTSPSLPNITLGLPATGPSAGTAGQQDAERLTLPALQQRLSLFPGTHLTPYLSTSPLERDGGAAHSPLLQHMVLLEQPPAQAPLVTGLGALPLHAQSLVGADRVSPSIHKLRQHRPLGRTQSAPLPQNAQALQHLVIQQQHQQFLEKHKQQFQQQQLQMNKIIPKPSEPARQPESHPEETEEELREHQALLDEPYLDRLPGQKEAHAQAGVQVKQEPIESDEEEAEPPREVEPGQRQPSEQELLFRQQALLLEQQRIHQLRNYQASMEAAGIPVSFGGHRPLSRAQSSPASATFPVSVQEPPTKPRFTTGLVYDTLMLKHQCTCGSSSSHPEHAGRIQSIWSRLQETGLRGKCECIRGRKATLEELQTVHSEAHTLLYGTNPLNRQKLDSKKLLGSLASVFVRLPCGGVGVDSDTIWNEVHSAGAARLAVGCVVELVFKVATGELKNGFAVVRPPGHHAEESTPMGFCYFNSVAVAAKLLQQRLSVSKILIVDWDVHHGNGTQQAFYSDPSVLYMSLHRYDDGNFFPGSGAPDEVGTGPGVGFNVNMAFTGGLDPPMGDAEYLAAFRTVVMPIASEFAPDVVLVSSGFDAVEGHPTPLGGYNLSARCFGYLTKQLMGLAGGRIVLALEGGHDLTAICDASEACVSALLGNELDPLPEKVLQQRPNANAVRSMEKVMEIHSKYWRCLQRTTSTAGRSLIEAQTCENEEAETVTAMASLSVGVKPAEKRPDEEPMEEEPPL

SMILES	IC50 [µM]
C#Cc1c[n+](C)ccc1NC(=O)CC(=O)N1Cc2ccccc2C1.[I-] [compound 3, 3-Ethynyl-4-[3-(isoindolin-2-yl)-3-oxopropanamido]-1-methylpyridin-1-ium Iodide]	23.1

target: T1, HDAC8 (Homo sapiens, UniProt Q9BY41); test: Covalent labeling, tryptic digestion and MS/MS; assay type: binding; conditions: not given
T1 construct: one additional N-terminal residue 'H' (His) (N)
T1 sequence (Q9BY41 1-377): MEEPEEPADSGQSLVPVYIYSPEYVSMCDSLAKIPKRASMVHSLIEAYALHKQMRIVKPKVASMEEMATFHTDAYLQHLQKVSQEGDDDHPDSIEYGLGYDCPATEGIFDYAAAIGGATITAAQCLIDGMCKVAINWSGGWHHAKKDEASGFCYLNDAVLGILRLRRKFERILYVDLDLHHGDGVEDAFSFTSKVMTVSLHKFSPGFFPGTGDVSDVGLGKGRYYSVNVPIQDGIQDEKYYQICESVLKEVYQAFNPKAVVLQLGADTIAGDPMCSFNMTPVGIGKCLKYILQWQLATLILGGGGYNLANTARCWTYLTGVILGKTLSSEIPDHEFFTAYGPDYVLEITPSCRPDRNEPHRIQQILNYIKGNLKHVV
Method: The covalent labeling procedure was conducted as described previously with slight modifications.[31] First, 25 μM HDAC8 was treated with 250 μM covalent probes for 1 h at 30 °C in the assay buffer described above. The protein was then precipitated by the addition of 10% TCA and then centrifuged at 18000g for 15 min. The supernatant was removed, and the dry pellet was diluted in buffer [50 mM NH4HCO3 (pH 7.8)]. After the fragment labeling was completed, 50 μL of the sample and 10 μL of a 0.2% (w/v) RapiGest SF (Waters, Milford, MA) solution buffered with 50 mM ammonium bicarbonate were mixed (pH 7.8), 3.3 μL of 45 mM DTT in 100 mM NH4HCO3 was added to reduce artificial oxidized cysteine residues, and the mixture was kept at 37.5 °C for 30 min. After the sample was cooled to room temperature, reduction was quenched, and nascent thiols were alkylated by adding 4.16 μL of 100 mM iodoacetamide in 100 mM NH4HCO3. Samples were placed in the dark at room temperature for 30 min. The reduced and alkylated protein was then digested with 10 μL (1 mg/mL) of trypsin (the enzyme:protein ratio was 1:10) (Sigma, St. Louis, MO). The sample was incubated at 37 °C overnight. To degrade the surfactant, 7 μL of a formic acid (500 mM) solution was added to the digested protein sample, a final concentration of 40 mM (pH ≈2) was obtained, and the mixture was further incubated at 37 °C for 45 min. For LC-MS analysis, the acid-treated sample was centrifuged for 5 min at 13 000 rpm and the supernatant was pipetted into a microvial.
For procedure A, an AB Sciex 6500 QTRAP hybrid triple quadruple linear ion trap mass spectrometer, equipped with a Turbo V ion source in electrospray mode and an Agilent 1100 Binary Pump HPLC system (Agilent Technologies, Waldbronn, Germany) consisting of an autosampler, was used for LC-MS/MS analysis. Data acquisition and processing were performed using Analyst version 1.6.2 (AB Sciex Instruments). Chromatographic separation was achieved by using the Discovery BIO Wide Pore C-18-5 column (250 mm × 2.1 mm, 5 μm, 300 Å). The sample was eluted with a gradient of solvent A (0.1% formic acid in water) and solvent B (0.1% formic acid in ACN). The flow rate was set to 0.2 mL min^–1. The initial process for separation was as follows: 5% B for 7 min, followed by a linear gradient to 90% B by […], 90% B from 60 to 64 min, and from 64 to 65 min back to the initial condition with 5% eluent B retained for 10 min. The injection volume was 10 μL. An information-dependent acquisiton (IDA) LC-MS/MS experiment was used to identify the modified tryptic peptide fragments. An enhanced MS scan (EMS) was used as a survey scan, and an enhanced product ion scan (EPI) was the dependent scan. Precursor ion selection criteria: ions greater than m/z 400, which exceeds 106 counts, exclude former target ions for 30 s after two occurrence(s). The scan rates in both survey and dependent scans were 1000 Da/s. Nitrogen was used as the nebulizer gas (GS1), heater gas (GS2), and curtain gas with the optimum values set at 50, 40, and 40 (arbitrary units), respectively. The source temperature was 350 °C, and the ion spray voltage was set at 5000 V. The declustering potential value was set to 150 V. The collision energy in EPI experiments was set to rolling collision energy mode, where the actual value was set on the basis of the mass and charge state of the selected ion. GPMAW version 4.2 was used to analyze the large number of MS-MS spectra and identify the modified tryptically digested peptides.
For procedure B, to obtain more precise information about the structure, samples were further analyzed by a Triple TOF 5600+ hybrid Quadrupole-TOF LC/MS/MS system (Sciex) equipped with a DuoSpray IonSource coupled with a Shimadzu Prominence LC20 UFLC system consisting of a quaternary pump, an autosampler, and a thermostated column compartment. Data were acquired and processed using Analyst TF version 1.7.1 (AB Sciex Instruments). […]

SMILES	covalent labeling of HDAC8 cysteine by tryptic digestion and MS/MS
C#Cc1c[n+](C)ccc1NC(=O)CC(=O)N1Cc2ccccc2C1.[I-] [compound 3, 3-Ethynyl-4-[3-(isoindolin-2-yl)-3-oxopropanamido]-1-methylpyridin-1-ium Iodide]	proved Cys153 covalent labeling

same assay, conditions: 25 μM HDAC8, 250 μM probe, 1 h

SMILES	MS/MS: modified HDAC8 peptide [1-34]	MS/MS: modified HDAC8 peptide [148-165]	MS/MS: modified HDAC8 peptide [241-250]	MS/MS: modified HDAC8 peptide [33-83]	MS/MS: modified HDAC8 peptide [260-287]	MS/MS: modified HDAC8 peptide [327-357]
C#Cc1cc[n+](C)cc1 [C6+]	modified	modified	modified			
C#Cc1nccc[n+]1C [D6+]	modified					
C[n+]1ccc(I)cc1 [C3+]		modified	modified	modified	modified	
C[n+]1cccnc1I [D3+]	modified	modified	modified		modified	
C[n+]1cncc(I)c1 [F3+]	modified	modified			modified	modified
C[n+]1cccnc1Cl [D1+]	modified	modified	modified			
C[n+]1cccnc1Br [D2+]		modified	modified			
C[n+]1cncc(Br)c1 [F2+]	modified	modified			modified	
C[n+]1ccccc1I [A3+]		modified	modified			
C#Cc1c[n+](C)ccn1 [G6+]	modified	modified			modified	

tested on: SMC3 acetylation; test: Western blot (immunoblot) in OCI-AML3 cells; assay type: cell-based; conditions: 72 h treatment
Method: Cells (2 ×10^6) were seeded in 2 mL of medium in a six-well plate (Greiner) and treated with the desired concentration of the compounds. […] Protein concentrations were determined by the Bradford protein assay. Thirty micrograms of cell lysates per treatment was fractionated on sodium dodecyl sulfate–polyacrylamide gels and transferred to nitrocellulose membranes (Cytiva).

SMILES	concentration inducing an increased level of SMC3 acetylation [µM]	effect on HDAC8 levels
C#Cc1c[n+](C)ccc1NC(=O)CC(=O)N1Cc2ccccc2C1.[I-] [compound 3, 3-Ethynyl-4-[3-(isoindolin-2-yl)-3-oxopropanamido]-1-methylpyridin-1-ium Iodide]	10	not influencing HDAC8 levels
